One block for each compound: values may come before it.
Key:
Autotaxin [1] = target: T1, Autotaxin (Homo sapiens, UniProt Q13822); assay: Inhibition of human ENPP2 using bis-pNPP as substrate measured every 10 secs for 10 mins by spectrophotometric assay
Autotaxin [2] = target: T1, Autotaxin; assay: Inhibition of human ENPP2 using FS3 as substrate measured every 5 mins for 30 mins by fluorescence assay
[3] = AUC in Sprague-Dawley rat at 10 mg/kg, iv administered as single bolus dose by HPLC-MS/MS analysis; type: ADME, organism-based; settings: in vivo
[4] = Half life in Sprague-Dawley rat liver microsomes at 5 uM preincubated for 10 mins followed by NADPH addition measured up to 60 mins by LC-MS/MS analysis; type: ADME, microsome
Autotaxin [5] = target: T1, Autotaxin; assay: Inhibition of ENPP2 in human plasma using LPC as substrate preincubated for 15 mins followed by substrate addition measured after 3 hrs by LC-MS/MS analysis
Rattus norvegicus [6] = assay: Dose normalized Cmax in Sprague-Dawley rat at 20 mg/kg, iv administered as single bolus dose by HPLC-MS/MS analysis; type: ADME, organism-based; settings: in vivo
[7] = Tmax in Sprague-Dawley rat at 10 mg/kg, iv administered as single bolus dose by HPLC-MS/MS analysis; type: ADME, organism-based; settings: in vivo
Rattus norvegicus [8] = assay: Dose normalized Cmax in Sprague-Dawley rat at 2 mg/kg, iv administered as single bolus dose by HPLC-MS/MS analysis; type: ADME, organism-based; settings: in vivo
[9] = Cmax in Sprague-Dawley rat at 2 mg/kg, iv administered as single bolus dose by HPLC-MS/MS analysis; type: ADME, organism-based; design: dose 2 mg/kg, route intravenous; settings: in vivo
[10] = Half life in human liver microsomes at 5 uM preincubated for 10 mins followed by NADPH addition measured up to 60 mins by LC-MS/MS analysis; type: ADME, microsome
[11] = Volume of distribution at steady state in Sprague-Dawley rat at 20 mg/kg, iv administered as single bolus dose by HPLC-MS/MS analysis; type: ADME, organism-based; settings: in vivo, read-out: Vdss
[12] = Terminal half life in Sprague-Dawley rat at 10 mg/kg, iv administered as single bolus dose by HPLC-MS/MS analysis; type: ADME, organism-based; settings: in vivo, read-out: beta t1/2 (converted)
[13] = Terminal half life in Sprague-Dawley rat at 2 mg/kg, iv administered as single bolus dose by HPLC-MS/MS analysis; type: ADME, organism-based; settings: in vivo, read-out: beta t1/2 (converted)
[14] = Volume of distribution at steady state in Sprague-Dawley rat at 2 mg/kg, iv administered as single bolus dose by HPLC-MS/MS analysis; type: ADME, organism-based; settings: in vivo, read-out: Vdss
[15] = Cmax in Sprague-Dawley rat at 10 mg/kg, iv administered as single bolus dose by HPLC-MS/MS analysis; type: ADME, organism-based; design: dose 10 mg/kg, route intravenous; settings: in vivo
[16] = Tmax in Sprague-Dawley rat at 2 mg/kg, iv administered as single bolus dose by HPLC-MS/MS analysis; type: ADME, organism-based; settings: in vivo
Autotaxin [17] = target: T1, Autotaxin; assay: Inhibition of ENPP2 in human SKHEP1 cells using LPC as substrate preincubated for 15 mins followed by substrate addition measured after 3 hrs by LC-MS/MS analysis; type: cell-based
[18] = Volume of distribution at steady state in Sprague-Dawley rat at 10 mg/kg, iv administered as single bolus dose by HPLC-MS/MS analysis; type: ADME, organism-based; settings: in vivo, read-out: Vdss
Autotaxin [19] = target: T1, Autotaxin; assay: Inhibition of ENPP2 in human A2058 cells using LPC as substrate preincubated for 15 mins followed by substrate addition measured after 3 hrs by LC-MS/MS analysis; type: cell-based
Rattus norvegicus [20] = assay: Dose normalized Cmax in Sprague-Dawley rat at 10 mg/kg, iv administered as single bolus dose by HPLC-MS/MS analysis; type: ADME, organism-based; settings: in vivo
Rattus norvegicus [21] = assay: Dose normalized AUC in Sprague-Dawley rat at 20 mg/kg, iv administered as single bolus dose by HPLC-MS/MS analysis; type: ADME, organism-based; settings: in vivo
[22] = Tmax in Sprague-Dawley rat at 20 mg/kg, iv administered as single bolus dose by HPLC-MS/MS analysis; type: ADME, organism-based; settings: in vivo
[23] = Clearance in Sprague-Dawley rat at 10 mg/kg, iv administered as single bolus dose by HPLC-MS/MS analysis; type: ADME, organism-based; settings: in vivo
[24] = Terminal half life in Sprague-Dawley rat at 20 mg/kg, iv administered as single bolus dose by HPLC-MS/MS analysis; type: ADME, organism-based; settings: in vivo, read-out: beta t1/2 (converted)
[25] = Metabolic stability in Sprague-Dawley rat liver microsomes assessed as parent compound remaining at 5 uM preincubated for 10 mins followed by NADPH addition measured after 60 mins by LC-MS/MS analysis; type: ADME, microsome; settings: read-out: Stability
[26] = Clearance in Sprague-Dawley rat at 2 mg/kg, iv administered as single bolus dose by HPLC-MS/MS analysis; type: ADME, organism-based; settings: in vivo
[27] = Metabolic stability in human liver microsomes assessed as parent compound remaining at 5 uM preincubated for 10 mins followed by NADPH addition measured after 60 mins by LC-MS/MS analysis; type: ADME, microsome; settings: read-out: Stability
Rattus norvegicus [28] = assay: Dose normalized AUC in Sprague-Dawley rat at 10 mg/kg, iv administered as single bolus dose by HPLC-MS/MS analysis; type: ADME, organism-based; settings: in vivo
[29] = AUC in Sprague-Dawley rat at 20 mg/kg, iv administered as single bolus dose by HPLC-MS/MS analysis; type: ADME, organism-based; settings: in vivo
[30] = AUC in Sprague-Dawley rat at 2 mg/kg, iv administered as single bolus dose by HPLC-MS/MS analysis; type: ADME, organism-based; settings: in vivo
Rattus norvegicus [31] = assay: Dose normalized AUC in Sprague-Dawley rat at 2 mg/kg, iv administered as single bolus dose by HPLC-MS/MS analysis; type: ADME, organism-based; settings: in vivo
[32] = Clearance in Sprague-Dawley rat at 20 mg/kg, iv administered as single bolus dose by HPLC-MS/MS analysis; type: ADME, organism-based; settings: in vivo
[33] = Cmax in Sprague-Dawley rat at 20 mg/kg, iv administered as single bolus dose by HPLC-MS/MS analysis; type: ADME, organism-based; design: dose 20 mg/kg, route intravenous; settings: in vivo

SMILES: NS(=O)(=O)Cc1ccc(NC(=O)C2CCN(C(=O)OCc3cc(Cl)cc(Cl)c3)CC2)cc1
IC50 (Autotaxin [1]): 73.5 nM
IC50 (Autotaxin [2]): 4.62 nM

SMILES: O=C(Nc1nc(CP(=O)(O)O)cs1)C1CCN(C(=O)OCc2cc(Cl)cc(Cl)c2)CC1
IC50 (Autotaxin [1]): 26.5 nM
IC50 (Autotaxin [2]): 1.75 nM

SMILES: O=C(NO)c1ccc(NC(=O)C2CCN(C(=O)OCc3cc(Cl)cc(Cl)c3)CC2)cc1
IC50 (Autotaxin [1]): 496 nM
IC50 (Autotaxin [2]): 18.7 nM

SMILES: O=C(O)Cc1ccc(NC(=O)C2CCN(C(=O)OCc3cc(Cl)cc(Cl)c3)CC2)cc1
IC50 (Autotaxin [1]): 439 nM
IC50 (Autotaxin [2]): 8.44 nM

SMILES: O=C(NC1CCN(C(=O)OCc2cc(Cl)cc(Cl)c2)C1)c1nc(CP(=O)(O)O)cs1 (centres undefined)
IC50 (Autotaxin [1]): 54.7 nM
IC50 (Autotaxin [2]): 3.71 nM

SMILES: O=C(Nc1ccc(CP(=O)(O)O)cc1)C1CCN(C(=O)OCc2ccc(OC(F)(F)F)cc2)CC1
IC50 (Autotaxin [1]): 3.12 nM
IC50 (Autotaxin [2]): 1.97 nM

SMILES: O=C(Nc1ccc(CP(=O)(O)O)cc1)C1CCN(C(=O)OCc2ccccc2F)CC1
IC50 (Autotaxin [1]): 453 nM
IC50 (Autotaxin [2]): 7.13 nM

More lines, in order of falling IC50 (Autotaxin [1]), values ahead:

IC50 (Autotaxin [1]): 255 nM
IC50 (Autotaxin [2]): 7.17 nM
SMILES: O=C(Nc1ccc(CP(=O)(O)O)cc1)C1CCN(C(=O)OCc2ccccc2)CC1

IC50 (Autotaxin [1]): 250 nM
IC50 (Autotaxin [2]): 8.9 nM
SMILES: NS(=O)(=O)Nc1ccc(NC(=O)C2CCN(C(=O)OCc3cc(Cl)cc(Cl)c3)CC2)cc1

IC50 (Autotaxin [1]): 213 nM
IC50 (Autotaxin [2]): 3.29 nM
SMILES: O=C(Nc1ccc(CP(=O)(O)O)cc1)C1CCN(C(=O)OCc2ccccc2Cl)CC1

IC50 (Autotaxin [1]): 39.6 nM
IC50 (Autotaxin [2]): 1.79 nM
SMILES: O=C(Nc1ccc(CP(=O)(O)O)cc1)C1CCN(C(=O)OCc2cccc(Cl)c2)CC1

IC50 (Autotaxin [1]): 5.22 nM
IC50 (Autotaxin [2]): 1.36 nM
SMILES: O=C(NC1CCN(C(=O)OCc2cc(Cl)cc(Cl)c2)CC1)c1ccc(CP(=O)(O)O)cc1

IC50 (Autotaxin [1]): 2.78 nM
IC50 (Autotaxin [2]): 1.67 nM
SMILES: O=C(Nc1ccc(CP(=O)(O)O)cc1)C1CCN(C(=O)OCc2ccc(OC(F)(F)F)cc2F)CC1

AUC [3]: 12700 ng·h/mL
half-life at 5 µM [4]: > 60 min
IC50 (Autotaxin [5]): 136 nM
Cmax/dose (Rattus norvegicus [6]): 9.98 kg/L
Tmax [7]: 1.2 min
Cmax/dose (Rattus norvegicus [8]): 16.6 kg/L
Cmax [9]: 33.1 µg/mL
IC50 (Autotaxin [1]): 2.18 nM
IC50 (Autotaxin [2]): 1.23 nM
half-life at 5 µM [10]: > 60 min
Vd [11]: 2.24 L/kg
half-life [12]: 42.6 min
half-life [13]: 17.4 min
Vd [14]: 0.15 L/kg
Cmax [15]: 117 µg/mL
Tmax [16]: 1.2 min
IC50 (Autotaxin [17]): 7.9 nM
Vd [18]: 0.33 L/kg
IC50 (Autotaxin [19]): 1.3 nM
Cmax/dose (Rattus norvegicus [20]): 11.7 kg/L
AUC/dose (Rattus norvegicus [21]): 1.35 kg·h/L
Tmax [22]: 1.2 min
clearance [23]: 13.3 mL/min/kg
half-life [24]: 245 min
remaining at 1 h, 5 µM [25]: > 99.9%
clearance [26]: 11.3 mL/min/kg
remaining at 1 h, 5 µM [27]: > 99.9%
AUC/dose (Rattus norvegicus [28]): 1.27 kg·h/L
AUC [29]: 27000 ng·h/mL
AUC [30]: 3050 ng·h/mL
AUC/dose (Rattus norvegicus [31]): 1.53 kg·h/L
clearance [32]: 12.2 mL/min/kg
Cmax [33]: 200 µg/mL
SMILES: O=C(Nc1ccc(CP(=O)(O)O)cc1)C1CCN(C(=O)OCc2cc(Cl)cc(Cl)c2)CC1
